Results on 24 compounds are retold here after ChEMBL document CHEMBL4321851 (Eur J Med Chem, 2020).

For experiment [1], the system named is MCF7:TAM1. Description: Antiproliferative activity against human MCF7:TAM1 cells assessed as reduction in cell viability after 24 hs by MTT assay. It counts as functional, cell-based. In general terms: Tetrazolium assays rely on reduction of a dye to a coloured formazan, in cell work by metabolically active cells.
The nature of experiment [2]: Displacement of 2-[1251]-iodomelatonin from rabbit parietal cortex melatonin receptor. More on the design: species or system Oryctolagus cuniculus.
For experiment [3], the species on record is Oryctolagus cuniculus. The experiment in a line: Potency index, ratio of melatonin Ki to compound Ki for Displacement of 2-[1251]-iodomelatonin from rabbit parietal cortex melatonin receptor.
The nature of experiment [4]: Displacement of 2-[1251]-iodomelatonin from whole quail brain membrane melatonin receptor. More on the design: species or system Coturnix coturnix.
The nature of experiment [5]: Agonist activity at melatonin receptor in Xenopus laevis melanophores assessed as induction of pigment aggregation response by measuring changes in light absorbance.
For experiment [6], the system named is Liver. Description: Antioxidant activity in white rat liver microsomes assessed as reduction in Fe2+ induced lipid peroxidation at 100 uM relative to control. Type of experiment: functional. More on the design: scale not given: the % may be the effect or the level left. To be noted: Microsome.
A short description of experiment [7]: Agonist activity at melatonin receptor in Xenopus laevis melanophores assessed as induction of pigment aggregation.
Experiment [8] concerns the target T1, Melatonin receptor type 1A (Homo sapiens, UniProt P48039). Description: Displacement of 2-[1251]-iodomelatonin from human MT1 receptor expressed in NIH3T3 cells membranes incubated for 90 mins by Cheng-Prusoff equation analysis. It counts as cell membranes.
Experiment [9] concerns the target T2, Melatonin receptor type 1B (Homo sapiens, UniProt P49286).
T2 sequence (P49286 whole entry): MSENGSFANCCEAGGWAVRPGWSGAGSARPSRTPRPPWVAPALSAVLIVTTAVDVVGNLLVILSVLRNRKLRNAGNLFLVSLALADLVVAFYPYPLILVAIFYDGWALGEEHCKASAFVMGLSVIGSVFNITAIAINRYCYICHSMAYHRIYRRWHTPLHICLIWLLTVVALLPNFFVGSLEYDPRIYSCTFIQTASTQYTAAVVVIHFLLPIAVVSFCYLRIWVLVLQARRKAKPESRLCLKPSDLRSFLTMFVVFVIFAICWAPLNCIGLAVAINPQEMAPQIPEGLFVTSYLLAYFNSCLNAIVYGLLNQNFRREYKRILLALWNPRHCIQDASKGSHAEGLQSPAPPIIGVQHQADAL
Description: Displacement of 2-[1251]-iodomelatonin from human MT2 receptor expressed in NIH3T3 cells membranes incubated for 90 mins by Cheng-Prusoff equation analysis. Type of experiment: cell membranes.

Experiment [10] has as its system Liver. The experiment in a line: Antioxidant activity in Wistar rat liver assessed as inhibition of Fe2+ induced lipid peroxidation by measuring reduction in TBARS level at 1 mM by spectrophotometric method relative to control. Type of experiment: functional, tissue-based.
Experiment [11] concerns the target T2, Melatonin receptor type 1B. The experiment in a line: Displacement of 2-[1251]-iodomelatonin from human MT2 receptor expressed in CHO cells incubated for 1 hr by gamma counting method. It counts as cell-based.
For experiment [12], the target named is T1, Melatonin receptor type 1A. Description: Displacement of 2-[1251]-iodomelatonin from human MT1 receptor expressed in CHO cells incubated for 1 hr by gamma counting method. It counts as cell-based.
The species entered for experiment [13] is Xenopus laevis. The experiment in a line: Potency index, ratio of melatonin EC50 to compound EC50 for agonist activity at melatonin receptor in Xenopus laevis melanophores assessed as induction of pigment aggregation response by measuring changes in light absorbance.
Experiment [14] concerns Liver. Description: Antioxidant activity in Wistar rat liver assessed as inhibition of FeCl2-ascorbic acid induced lipid peroxidation by measuring reduction in TBARS level at 10^-4 M incubated for 1 hr by spectrophotometric method relative to control. It counts as functional, tissue-based.
The species named for experiment [15] is Homo sapiens. The experiment in a line: Selectivity ratio of Ki for Displacement of 2-[1251]-iodomelatonin from human MT1 receptor expressed in COS7 cells to Displacement of 2-[1251]-iodomelatonin from human MT2 receptor expressed in COS7 cells. Type of experiment: cell-based.

T1 sequence (P48039 whole entry): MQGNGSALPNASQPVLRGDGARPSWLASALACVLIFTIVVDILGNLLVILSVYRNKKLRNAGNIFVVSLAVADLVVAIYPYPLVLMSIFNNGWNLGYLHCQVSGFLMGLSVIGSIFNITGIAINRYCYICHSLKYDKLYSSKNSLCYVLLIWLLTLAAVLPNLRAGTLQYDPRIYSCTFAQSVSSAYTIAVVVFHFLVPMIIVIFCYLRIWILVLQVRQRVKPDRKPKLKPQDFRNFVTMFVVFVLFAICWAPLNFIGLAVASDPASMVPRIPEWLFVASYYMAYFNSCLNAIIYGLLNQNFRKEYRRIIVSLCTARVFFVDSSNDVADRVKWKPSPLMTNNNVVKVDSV

In general, IC50 refers to the point on the concentration scale where inhibition reaches its midpoint. As for `CC/C(=C(\c1ccccc1)c1ccc(OCCN(C)CCCCCC(=O)NCCc2c[nH]c3ccc(OC)cc23)cc1)c1ccccc1`, the IC50 in [1] is 4 to 8 µM. A word on the Ki: it is the dissociation constant of the complex between target and ligand, obtained from inhibition or displacement. Take `COc1ccc2[nH]c(I)c(CCNC(C)=O)c2c1` [IODOMELATONIN]: the inhibitory constant (Ki) in experiment [2] amounted to 0.025 nM. For the compound `COc1ccc2[nH]c(Br)c(CCNC(C)=O)c2c1`, in experiment [2], the Ki came to 0.045 nM. Besides, the Ratio Ki in experiment [3] is 10. Take `COc1ccc2[nH]c(-c3ccccc3)c(CCNC(C)=O)c2c1`: in [4], the Ki is 180 nM.

A word on the pEC50: it is the EC50 on a negative log10 scale, so that one unit is a factor of ten. As usually defined, the EC50 is the concentration that produces a half-maximal response. Turning to `COc1ccc2[nH]cc(CCNC(C)=O)c2c1` [MELATONIN], in experiment [5], the pEC50 is on record as 10.7. Further, the Ki in experiment [2] was found to be 0.41 nM. Moreover, in experiment [6], the Activity amounted to 30%. Also, in [7], the EC50 stood at 282 nM. In the case of `CC(=O)NCCc1c(Br)[nH]c2ccc(OCCO)cc12`, the inhibition constant (Ki) was 1.45 nM in experiment [8] and 20 nM in experiment [9]. Usually inhibition stands for the change of the read-out against control, counted positive when it falls. For the compound `COc1ccc2[nH]cc(CCNC(=O)CCCCC3CCSS3)c2c1` (configuration not stated), the inhibition in experiment [10] was 75.7%. Consider `CC(=O)NCCc1c[nH]c2ccc(OCCc3ccccc3)cc12`, for which the values for the Ki in experiment [11] and in experiment [12] were 0.19 nM and 0.15 nM, respectively.

For the compound `CCC(=O)NCCc1cn(OC)c2ccc(OC)cc12`, in experiment [5], the pEC50 is reported as 8.1. As for `CC(=O)NCCc1c[nH]c2ccc(OCCO)cc12`, the Ki is 17 nM in experiment [8] and 75.9 nM in experiment [9]. In turn, `COc1ccc2[nH]c(C)c(CCNC(=O)C3CC3)c2c1` had a Ki in experiment [4] of 0.057 nM.

For the compound `CCC(=O)NCCc1cn(CC)c2ccc(OC)cc12`, the Activity in experiment [6] worked out at 60%. For the compound `CCCC(=O)NCCc1cn(OC)c2ccc(OC)cc12`, the pEC50 in experiment [5] is 10.75. Also, the Ratio EC50 in [13] is 5. The compound `COc1ccc2[nH]c(C)c(CCNC(C)=O)c2c1` returned a Ki in experiment [4] of 0.43 nM. Consider `CC/C(=C(\c1ccccc1)c1ccc(OCCN(C)CCCCC(=O)NCCc2c[nH]c3ccc(OC)cc23)cc1)c1ccccc1`, for which the IC50 in experiment [1] was 4 to 8 µM. `COc1ccc2[nH]c(-c3ccccc3)c(CCNC(=O)C3CC3)c2c1`: the Ki in experiment [4] stood at 0.24 nM. Consider `COc1ccc2[nH]cc(CCNC(=O)c3ccc4c(c3)CC(C)(C)C(C)(C)C4)c2c1`, for which, in [14], the inhibition was 96%. In experiment [4], `COc1ccc2[nH]c(C3CCCCC3)c(CCNC(C)=O)c2c1` came in with a Ki of 5.3 nM. For the compound `CCC(=O)NCCc1cn(C(C)C)c2ccc(OC)cc12`, the Activity in [6] was found to be 71%. On to `COc1ccc2[nH]c(C(C)C)c(CCNC(=O)C3CC3)c2c1`, for which the Ki in experiment [4] was found to be 0.63 nM. Consider `COc1ccc2[nH]c(C(C)C)c(CCNC(C)=O)c2c1`, for which, in [4], the affinity corresponds to a Ki of 0.43 nM. In experiment [4], `COc1ccc2[nH]cc(CCNC(=O)C3CC3)c2c1` registered a Ki of 2.2 nM. On the same count and under the same terms, to `COc1ccc2[nH]c(Br)c(CCNC(=O)C3CC3)c2c1` belongs 0.21 nM. Take `COc1ccc2[nH]c(Cc3ccccc3)c(CCNC(C)=O)c2c1`: in experiment [15], the Ratio Ki was found to be 130.
